Results as given in ChEMBL document CHEMBL3351457, “Design and synthesis of 8-hydroxyquinoline-based radioprotective agents” (Bioorg Med Chem, 2014).
Active and inactive are the calls of the source. The calls are words filed in the database; no cut-off is given here.

Legend:
[1] = test system: MOLT-4; assay: Radioprotective activity against gamma-irradiated human MOLT4 cells preincubated for 1 hr at 100 to 400 uM before gamma-irradiation measured after 18 hrs by erythrosine B dye-exclusion test; assay type: functional, cell-based
[2] = test system: MOLT-4; assay: Cytotoxicity against human MOLT4 cells at 100 to 400 uM after 18 hrs by erythrosine B dye-exclusion test; assay type: cell-based; conditions: molt-4, 18 h
[3] = test system: MOLT-4; assay: Radioprotective activity against gamma-irradiated human MOLT4 cells preincubated for 1 hr at <50 uM before gamma-irradiation measured after 18 hrs by erythrosine B dye-exclusion test; assay type: functional, cell-based
[4] = test system: MOLT-4; assay: Inhibition of apoptosis in gamma-irradiated human MOLT4 cells preincubated for 1 hr at 100 to 400 uM before gamma-irradiation measured after 18 hrs by erythrosine B dye-exclusion test; assay type: functional, cell-based
[5] = target: Cellular tumor antigen p53 (Homo sapiens) (UniProt P04637); assay: Inhibition of recombinant FLAG-p53 (unknown origin) binding to FITC-labeled double-stranded oligonucleotide measured after 3 hrs by EMSA in presence of zinc(II) chelators
Cellular tumor antigen p53 (Homo sapiens), sequence (P04637 whole entry, looked up): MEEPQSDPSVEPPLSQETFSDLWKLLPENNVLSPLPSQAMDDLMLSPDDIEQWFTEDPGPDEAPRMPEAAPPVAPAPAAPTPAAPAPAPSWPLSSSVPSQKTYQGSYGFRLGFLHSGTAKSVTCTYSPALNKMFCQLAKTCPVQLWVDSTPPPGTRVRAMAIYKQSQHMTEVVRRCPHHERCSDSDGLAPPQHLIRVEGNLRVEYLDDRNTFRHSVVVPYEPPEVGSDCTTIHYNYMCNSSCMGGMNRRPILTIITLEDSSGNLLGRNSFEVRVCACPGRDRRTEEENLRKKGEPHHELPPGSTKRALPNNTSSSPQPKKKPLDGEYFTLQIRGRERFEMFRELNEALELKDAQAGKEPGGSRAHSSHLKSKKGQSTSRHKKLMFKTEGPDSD

[6] = Antioxidant activity assessed as DPPH free radical scavenging activity by UV-vis spectrophotometry; assay type: physicochemical
[7] = target: Cellular tumor antigen p53 (Homo sapiens) (UniProt P04637); assay: Binding affinity to recombinant FLAG-p53 (unknown origin) assessed as confirmational change measured after 12 hrs by CD spectroscopy in presence of zinc(II) chelators
[8] = test system: Jurkat; assay: Radioprotective activity against gamma-irradiated p53-inactive human Jurkat cells at after 18 hrs by erythrosine B dye-exclusion test; assay type: functional, cell-based
[9] = test system: MOLT-4; assay: Inhibition of apoptosis in gamma-irradiated human MOLT4 cells compound treated at 100 to 400 uM for 3 hrs post gamma-irradiation after 18 hrs by erythrosine B dye-exclusion test; assay type: functional, cell-based
[10] = test system: MOLT-4; assay: Radioprotective activity against gamma-irradiated human MOLT4 cells preincubated for 1 hr before gamma-irradiation measured after 18 hrs by erythrosine B dye-exclusion test; assay type: functional, cell-based
[11] = test system: Jurkat; assay: Cytotoxicity against p53-inactive human Jurkat cells at after 18 hrs by erythrosine B dye-exclusion test; assay type: cell-based
[12] = Stability of the compound assessed as hydrolysis at 37 degC after 18 hrs; assay type: physicochemical
[13] = test system: MOLT-4; assay: Cytotoxicity against human MOLT4 cells at 200 to 300 uM after 18 hrs by erythrosine B dye-exclusion test; assay type: cell-based; conditions: molt-4, 18 h

Molecule: Cc1ccc2c(S(=O)(=O)N3CCNCC3)cc(S(=O)(=O)N3CCNCC3)c(O)c2n1
- Activity [1]: Active

Molecule: CCN(CC)S(=O)(=O)c1cc(S(=O)(=O)N(CC)CC)c2ccc(C)nc2c1O
- Activity [2]: Toxic

Molecule: VITAMIN E
- Activity [3]: Active

Molecule: O=C1O[C@H]([C@@H](O)CO)C(O)=C1O
- Activity [3]: Active

Molecule: CN(C)S(=O)(=O)c1ccc2c(S(=O)(=O)N(C)C)cc(S(=O)(=O)N(C)C)c(O)c2c1
- Activity [1]: inactive

Molecule: CN(C)S(=O)(=O)c1ccc(O)c2ncccc12
- Activity [1]: Active

Molecule: c1ccc(CN(CCN(Cc2ccccn2)Cc2ccccn2)Cc2ccccn2)nc1
- Activity [3]: Active

Molecule: COc1ccc(S(=O)(=O)N(C)C)c2ccc(C)nc12
- Activity [2]: Non-toxic
- apoptosis inhibition (active/inactive) [4]: Active

Molecule: c1ccc2cnccc2c1
- Activity [1]: inactive

Molecule: Cc1ccc2c(S(=O)(=O)N(C)C)ccc(O)c2n1
- Activity [2]: Non-toxic
- Activity [1]: Active

Molecule: Oc1cccc2ccccc12
- Activity [1]: inactive

Molecule: CNS(=O)(=O)c1cc(S(=O)(=O)NC)c2ccc(C)nc2c1O
- inhibition [5]: inactive
- Activity [2]: Non-toxic
- Activity [6]: Not Active
- Activity [7]: inactive
- Activity [8]: inactive
- inhibition [9]: Active
- Activity [1]: Active
- Activity [10]: Dose-dependent effect
- Activity [11]: Non-toxic

Molecule: Cc1ccc2c(S(=O)(=O)NCCN)cc(S(=O)(=O)NCCN)c(O)c2n1
- Activity [1]: inactive

Molecule: COc1c(Br)cc(S(=O)(=O)N(C)C)c2ccc(C)nc12
- Activity [2]: Toxic
- apoptosis inhibition (active/inactive) [4]: Active

Molecule: CCOc1c(S(=O)(=O)N(C)C)cc(S(=O)(=O)N(C)C)c2ccc(C)nc12
- apoptosis inhibition (active/inactive) [4]: Active

Molecule: CCOc1c(S(=O)(=O)N(CC)CC)cc(S(=O)(=O)N(CC)CC)c2ccc(C)nc12
- Activity [2]: Toxic

Molecule: Cc1ccc2c(S(N)(=O)=O)cc(S(N)(=O)=O)c(O)c2n1
- Activity [1]: inactive

Molecule: Oc1ccc(Cl)c2cccnc12 [CLOXYQUIN]
- Activity [3]: Active
- Activity [2]: Toxic

Molecule: CCOc1ccc(S(=O)(=O)N(C)C)c2ccc(C)nc12
- apoptosis inhibition (active/inactive) [4]: Active

Molecule: c1ccc2ncccc2c1
- Activity [1]: inactive

Molecule: CCCNS(=O)(=O)c1cc(S(=O)(=O)NCCC)c2ccc(C)nc2c1O
- Activity [2]: Toxic

Molecule: CCOc1c(I)cc(S(=O)(=O)N(C)C)c2ccc(C)nc12
- Activity [2]: Toxic

Molecule: Cc1ccc2cccc(O)c2n1
- Activity [1]: Active

Molecule: COc1c(S(=O)(=O)N(C)C)cc(S(=O)(=O)N(C)C)c2ccc(C)nc12
- inhibition [5]: inactive
- Activity [2]: Non-toxic
- Activity [6]: Not Active
- Activity [7]: inactive
- Activity [8]: inactive
- apoptosis inhibition (active/inactive) [4]: Active
- inhibition [9]: Active
- Activity [11]: Non-toxic

Molecule: CNS(=O)(=O)c1cc(S(=O)(=O)NC)c2ccc(C)nc2c1OC
- apoptosis inhibition (active/inactive) [4]: Active

Molecule: Oc1cccc2cccnc12 [OXYQUINOLINE]
- Activity [3]: Active
- Activity [2]: Toxic

Molecule: CCN(CC)S(=O)(=O)c1cc(S(=O)(=O)N(CC)CC)c2ccc(C)nc2c1OC
- Activity [2]: Toxic
- apoptosis inhibition (active/inactive) [4]: Active

Molecule: COc1cc(/C=C/C(=O)CC(=O)/C=C/c2ccc(O)c(OC)c2)ccc1O
- Activity [3]: Active

Molecule: Cc1ccc2c(S(=O)(=O)N(C)C)cc(Br)c(O)c2n1
- Activity [2]: Non-toxic
- Activity [1]: Active

Molecule: CN(C)S(=O)(=O)c1cc(Br)c(O)c2ncccc12
- Activity [1]: Active

Molecule: Cc1ccc2c(S(=O)(=O)N(C)C)cc(S(=O)(=O)N(C)C)c(O)c2n1
- Activity [2]: Toxic

Molecule: CCOc1c(Br)cc(S(=O)(=O)N(C)C)c2ccc(C)nc12
- Activity [2]: Toxic

Molecule: COc1c(I)cc(S(=O)(=O)N(C)C)c2ccc(C)nc12
- Activity [2]: Toxic
- apoptosis inhibition (active/inactive) [4]: Active

Molecule: CNS(=O)(=O)c1cc(S(=O)(=O)NC)c2ccc(C)nc2c1OS(C)(=O)=O
- Stability [12]: Unstable
- Activity [13]: Toxic

Molecule: CNS(=O)(=O)c1ccc(OC)c2nc(C)ccc12
- Activity [2]: Non-toxic
- apoptosis inhibition (active/inactive) [4]: Active

Molecule: c1ccc(CNCCNCc2ccccn2)nc1
- Activity [3]: Active
- Activity [7]: Active

Molecule: Cc1ccc2c(S(=O)(=O)N3CCCNCC3)cc(S(=O)(=O)N3CCCNCC3)c(O)c2n1
- Activity [1]: Active

Molecule: CNS(=O)(=O)c1cc(S(=O)(=O)NC)c2cccnc2c1O
- Activity [3]: inactive
- Activity [1]: Active
- Activity [10]: Dose-dependent effect

Molecule: Oc1ccc(Cl)c2ccccc12
- Activity [1]: inactive
